Data on 35 molecules can be found in US20240116897A1, “BENZOTHIAZOLE AND BENZIMIDAZOLE DERIVATIVES, PHARMACEUTICALLY ACCEPTABLE SALT THEREOF, PREPARATION METHOD THEREFOR, AND PHARMACEUTICAL COMPOSITION COMPRISING SAME AS ACTIVE INGREDIENT” (KOREA RESEARCH INSTITUTE OF CHEMICAL TECHNOLOGY, priority 2021, published 2024).

This assay has as its target T1, SIRT7 protein (Homo sapiens, UniProt Q9NRC8).
T1 construct: purchased SignalChem S41-30H
T1 sequence (Q9NRC8 1-400): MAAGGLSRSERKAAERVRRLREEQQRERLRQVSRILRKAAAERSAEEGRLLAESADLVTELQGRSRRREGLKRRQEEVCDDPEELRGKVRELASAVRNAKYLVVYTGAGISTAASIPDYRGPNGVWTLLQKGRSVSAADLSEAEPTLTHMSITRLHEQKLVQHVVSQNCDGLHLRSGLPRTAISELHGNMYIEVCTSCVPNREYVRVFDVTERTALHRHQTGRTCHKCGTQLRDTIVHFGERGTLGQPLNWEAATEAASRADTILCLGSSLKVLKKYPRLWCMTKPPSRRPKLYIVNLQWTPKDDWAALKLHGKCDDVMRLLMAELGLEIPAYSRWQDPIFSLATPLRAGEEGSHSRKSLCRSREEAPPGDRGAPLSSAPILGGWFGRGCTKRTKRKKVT
The assay is described as follows: SIRT Glo assay, inhibitory activity against Sirt7. The class given is biochemical. The note with it: 10 μM compound. As to the method:
Promega's Cat. No. 6450 SIRT Glo assay kit was used, and as the target SIRT7 protein, No. S41-30H protein of SignalChem's Cat. was used. Prepare the compound by diluting it in SIRT Glo buffer in advance to a concentration twice as thick as the final concentration. For the positive control group of white 384 well plate (Greiner Bioone, white, small volume, Cat. No. 874075), and for compound group, dilute sirt7 protein in SIRT Glo buffer and dispense by 5 μL to contain 20 ng per well. In the background control group, 10 μL of SIRT Glo buffer is dispensed.
After adding 5 μL of SIRT Glo buffer to the positive control group, and 5 μL of the diluted compound to the compound group, react for 30 minutes. After making the substrate provided in the SIRT Glo assay, adding 10 μL each, and reacting for 1 hour, the luciferase activity is measured with a microplate reader (Molecular Device, spectramax i3).
Subtract the luciferase level of the background control group in all wells. The % inhibition of the compound was used to obtain the compound's rate of inhibitory activity against sirt7 in the following:
% inhibition=100−(compound group/positive control group)×100.
The term inhibition denotes the percentage by which the read-out fell short of the control. High values mean a strong effect, low ones a weak effect. For `CC(C)(C)OC(=O)N1CCN(Cc2ccc(C(=O)Nc3nc4ccccc4[nH]3)cc2)CC1` [Compound 1-1, Tert-Butyl 4-(4-((1H-benzo[d]imidazol-2-yl)carbamoyl)benzyl)piperazine-1-carboxylate], the inhibition at 10 µM was 12%.
Molecule `Cn1c(NC(=O)c2ccc(CN3CCN(C(=O)OC(C)(C)C)CC3)cc2)nc2ccccc21` [Compound 1-2, Tert-Butyl 4-(4-((1-methyl-1H-benzo[d]imidazol-2-yl)carbamoyl)benzyl)piperazine-1-carboxylate] gave an inhibition at 10 µM of 8%.
`O=C(Nc1nc2ccccc2[nH]1)c1ccc(CN2CCNCC2)cc1` [Compound 1-3, N-(1H-benzo[d]imidazol-2-yl)-4-(piperazin-1-ylmethyl)benzamide] displayed an inhibition at 10 µM of 10%.
`Cc1ccc(Oc2ccc(C(=O)Nc3nc4ccccc4[nH]3)cc2)nn1` [Compound 1-4, N-(1H-benzo[d]imidazol-2-yl)-4-((6-methylpyridazin-3-yl)oxy)benzamide] registered an inhibition at 10 µM of 90%.
Then `Cc1ccc(Oc2cccc(C(=O)Nc3nc4ccccc4[nH]3)c2)nn1` [Compound 1-5, N-(1H-benzo[d]imidazol-2-yl)-3-((6-methylpyridazin-3-yl)oxy)benzamide], with 65%; and `Cc1ccc(Oc2ccc(C(=O)Nc3nc4cc(F)ccc4[nH]3)cc2)nn1` [Compound 1-6, N-(5-fluoro-1H-benzo[d]imidazol-2-yl)-4-((6-methylpyridazin-3-yl)oxy)benzamide], with 92%; and `Cc1ccc(Oc2ccc(C(=O)Nc3nc4cc(F)c(F)cc4[nH]3)cc2)nn1` [Compound 1-7, N-(5,6-difluoro-1H-benzo[d]imidazol-2-yl)-4-((6-methylpyridazin-3-yl)oxy)benzamide], with 5%.
Regarding `CCc1cnc(Oc2cccc(C(=O)Nc3nc4ccccc4[nH]3)c2)nc1` [Compound 1-8, N-(1H-benzo[d]imidazol-2-yl)-3-((5-ethylpyrimidin-2-yl)oxy)benzamide], at 10 µM the inhibition was 44%.
Then `CCc1cnc(Oc2ccc(C(=O)Nc3nc4ccccc4[nH]3)cc2)nc1` [Compound 1-9, N-(1H-benzo[d]imidazol-2-yl)-4-((5-ethylpyrimidin-2-yl)oxy)benzamide], with 63%.
`O=C(Nc1nc2ccccc2[nH]1)c1ccc(Oc2ncc(F)cn2)cc1` [Compound 1-10, N-(1H-benzo[d]imidazol-2-yl)-4-((5-fluoropyrimidin-2-yl)oxy)benzamide] yielded an inhibition at 10 µM of 56%.
With `O=C(Nc1nc2ccccc2[nH]1)c1cccc(Oc2ncc(F)cn2)c1` [Compound 1-11, N-(1H-benzo[d]imidazol-2-yl)-3-((5-fluoropyrimidin-2-yl)oxy)benzamide], 10 µM produced 21% inhibition.
Then `O=C(Nc1nc2ccccc2[nH]1)c1ccc(OCc2ccccc2)cc1` [Compound 1-12, N-(1H-benzo[d]imidazol-2-yl)-4-(benzyloxy)benzamide], with 99%; and `O=C(Nc1nc2ccccc2[nH]1)c1ccc(OCc2ccc(C(F)(F)F)cc2)cc1` [Compound 1-13, N-(1H-benzo[d]imidazol-2-yl)-4-((4-(trifluoromethyl)benzyl)oxy)benzamide], with 21%; and `O=C(Nc1nc2ccccc2n1Cc1ccc(C(F)(F)F)cc1)c1ccc(OCc2ccc(C(F)(F)F)cc2)cc1` [Compound 1-14, N-(1-(4-(trifluoromethyl)benzyl)-1H-benzo[d]imidazol-2-yl)-4-((4-(trifluoromethyl)benzyl)oxy)benzamide], with 15%.
Take `Cc1ccc(Oc2ccc(C(=O)Nc3nc4ccccc4s3)cc2)nn1` [Compound 1-15, N-(benzo[d]thiazol-2-yl)-4-((6-methylpyridazin-3-yl)oxy)benzamide]: the inhibition at 10 µM was determined as 52%.
Then `Cc1ccc(Oc2ccc(C(=O)Nc3nc4cccnc4s3)cc2)nn1` [Compound 1-16, 4-((6-methylpyridazin-3-yl)oxy)-N-(thiazolo[5,4-b]pyridin-2-yl)benzamide], with 87%.
Then `Cc1ccc(Oc2cccc(C(=O)Nc3nc4ccccc4s3)c2)nn1` [Compound 1-17, N-(benzo[d]thiazol-2-yl)-3-((6-methylpyridazin-3-yl)oxy)benzamide], with 88%; and `Cc1ccc(Oc2ccc(C(=O)Nc3nc4ccc(Br)cc4s3)cc2)nn1` [Compound 1-18, N-(6-bromobenzo[d]thiazol-2-yl)-4-((6-methylpyridazin-3-yl)oxy)benzamide], with 5%.
Then `CCc1cnc(Oc2ccc(C(=O)Nc3nc4ccccc4s3)cc2)nc1` [Compound 1-19, N-(benzo[d]thiazol-2-yl)-4-((5-ethylpyrimidin-2-yl)oxy)benzamide], with 13%; and `CCc1cnc(Oc2cccc(C(=O)Nc3nc4ccccc4s3)c2)nc1` [Compound 1-20, N-(benzo[d]thiazol-2-yl)-3-((5-ethylpyrimidin-2-yl)oxy)benzamide], with 63%; and `O=C(Nc1nc2ccccc2s1)c1ccc(Oc2ncc(F)cn2)cc1` [Compound 1-21, N-(benzo[d]thiazol-2-yl)-4-((5-fluoropyrimidin-2-yl)oxy)benzamide], with 41%.
`CC(C)(C)OC(=O)N1CCN(c2nc3ccccc3s2)CC1` [Compound 1-22, tert-butyl 4-(benzo[d]thiazol-2-yl)piperazine-1-carboxylate] yielded an inhibition at 10 µM of 49%.
Regarding `c1ccc2sc(N3CCC4(CC3)OCCO4)nc2c1` [Compound 1-23, 8-(benzo[d]thiazol-2-yl)-1,4-dioxa-8-azaspiro[4.5]decane], the inhibition at 10 µM is 78%.
Then `CC(C)(C)OC(=O)N1CCC2(CC1)CN(c1nc3ccccc3s1)C2` [Compound 1-24, tert-butyl 2-(benzo[d]thiazol-2-yl)-2,7-diazaspiro[3.5]nonane-7-carboxylate], with 10%; and `CC(C)(C)OC(=O)N1C[C@@H]2C[C@H]1CN2Cc1ccc(C(=O)Nc2nc3ccccc3s2)cc1` [Compound 1-25, Tert-Butyl (1S,4S)-5-(4-(benzo[d]thiazol-2-ylcarbamoyl)benzyl)-2,5-diazabicyclo[2.2.1]heptane-2-carboxylate], with 72%.
Then `CC(C)(C)OC(=O)N1CCN(Cc2ccc(C(=O)Nc3nc4ccccc4s3)cc2)CC1` [Compound 1-26, Tert-Butyl 4-(4-(benzo[d]thiazol-2-ylcarbamoyl)benzyl)piperazine-1-carboxylate], with 40%; and `CC(C)(C)OC(=O)N1CC2(CCN(Cc3ccc(C(=O)Nc4nc5ccccc5s4)cc3)CC2)C1` [Compound 1-27, tert-butyl 7-(4-(benzo[d]thiazol-2-ylcarbamoyl)benzyl)-2,7-diazaspiro[3.5]nonane-2-carboxylate], with 27%.
Turning to `CC(C)(C)OC(=O)N1CCC2(CCN(Cc3ccc(C(=O)Nc4nc5ccccc5s4)cc3)CC2)CC1` [Compound 1-28, tert-butyl 9-(4-(benzo[d]thiazol-2-ylcarbamoyl)benzyl)-3,9-diazaspiro[5.5]undecane-3-carboxylate], testing at 10 µM gave an inhibition of 62%.
Then `O=C(Nc1nc2ccccc2s1)c1ccc(CN2CCC3(CC2)OCCO3)cc1` [Compound 1-29, 4-((1,4-dioxa-8-azaspiro[4.5]decan-8-yl)methyl)-N-(benzo[d]thiazol-2-yl)benzamide], with 83%.
Consider `c1ccc(CN2CCC3(CC2)CN(c2nc4ccccc4s2)C3)cc1` [Compound 1-30, 2-(7-benzyl-2,7-diazaspiro[3.5]nonan-2-yl)benzo[d]thiazole], for which at 10 µM the inhibition was 19%.
`O=C(Nc1nc2ccccc2s1)c1ccc(CN2CCNCC2)cc1` [Compound 1-31, N-(benzo[d]thiazol-2-yl)-4-(piperazin-1-ylmethyl)benzamide]: the inhibition at 10 µM is 15%.
Then `CCS(=O)(=O)N1CCN(Cc2ccc(C(=O)Nc3nc4ccccc4s3)cc2)CC1` [Compound 1-32, N-(benzo[d]thiazol-2-yl)-4-((4-(ethylsulfonyl)piperazin-1-yl)methyl)benzamide], with 34%.
In the case of `CN(C)S(=O)(=O)N1CCN(Cc2ccc(C(=O)Nc3nc4ccccc4s3)cc2)CC1` [Compound 1-33, N-(benzo[d]thiazol-2-yl)-4-((4-(N,N-dimethylsulfamoyl)piperazin-1-yl)methyl)benzamide], testing at 10 µM gave an inhibition of 33%.
Regarding `O=C(Nc1nc2ccccc2s1)c1ccc(CN2CCN(S(=O)(=O)C3CC3)CC2)cc1` [Compound 1-34, N-(benzo[d]thiazol-2-yl)-4-((4-(cyclopropylsulfonyl)piperazin-1-yl)methyl)benzamide], at 10 µM the inhibition was 29%.
The molecule `O=C(Nc1nc2ccccc2s1)c1ccc(CN2CCN(S(=O)(=O)c3ccccc3)CC2)cc1` [Compound 1-35, N-(benzo[d]thiazol-2-yl)-4-((4-(phenylulfonyl)piperazin-1-yl)methyl)benzamide] yielded an inhibition at 10 µM of 20%.
